3 compounds from patent publication US8598216B1 (Abbvie Inc., priority 2010, dated 2013) can be followed below.

Series [1] is described as follows: Dynamic moisture sorption (hygroscopicity). The format is physicochemical. Particulars: 90% RH, 25° C.; FIG. 7. Here is the method: Hygroscopicity was evaluated on a dynamic moisture sorption balance (IGAsorp, Hiden Isochema, Warrington, UK) equipped with a data analyzer (IGAsorp, version 6.0.0.23, Hiden Isochema, Warrington UK). The balance was calibrated using standardized weights of 20, 50, and 100 mg. The RH probe was calibrated using standardized salt solutions of Lithium Chloride, Potassium Carbonate, and Sodium Chloride. During the experiment, the flow rate of nitrogen gas at different relative humidity was 250 mL/min. For anhydrous materials, the sample was first dried with dry nitrogen at 50° C. for two hours. The temperature was then set to 25° C. and the relative humidity was changed from 0% to 90% and back to 0% at 10% interval. For hydrated samples, the temperature was set to 25° C. and the relative humidity was changed at 10% interval from 30% to 90%, back to 10%, and then to 90%.

A further series in a line: in vivo. Particulars: dog. The procedure:
A series of studies evaluated the effect of the bis-hydrochloride and bis-tosylate form on the ritonavir plasma concentrations following single 100 mg base doses in dogs. Each of the salts was evaluated in a single group of six dogs. The free base and the two salts were weighed into gelatin capsules at a dose of 100 mg base for dosing in the dogs. The dogs were fasted overnight prior to dosing, but were permitted free access to water. Approximately 30 minutes prior to dosing, the dogs received a 100 ug/kg subcutaneous dose of histamine. Plasma concentrations of parent drug were determined by HPLC-MS/MS. The following formulations/salts were evaluated: amorphous ritonavir bis-hydrochloride, amorphous ritonavir free base, and ritonavir bis-tosylate.

Series [2] can be described thus: Intrinsic dissolution rate (IDR), compressed disc, USP II. The format is physicochemical. As to conditions: 200 mL pH 6.8 phosphate buffer, paddle 100 rpm; FIG. 10. Here is the method:
Drug dissolution was measured using in USP II (Dissolution medium: 200 mL pH 6.8 phosphate buffer; Paddle speed: 100 rpm).

A value given as a limit tells only on which side of the number the result lay.

Consider `CC(C)c1nc(CN(C)C(=O)N[C@H](C(=O)N[C@@H](Cc2ccccc2)C[C@H](O)[C@H](Cc2ccccc2)NC(=O)OCc2cncs2)C(C)C)cs1.Cl.Cl` [ritonavir bis-hydrochloride], for which the moisture picked up entry in series [1] is “about 20 % (w/w)”. Further, the “bioavailability compared with free base” value in “in vivo” is “greater bioavailability than the free base of ritonavir”. Also, the AUC in “in vivo” (po, 100 mg, range) was 3160 to 20200 ng·h/mL. The compound also came in with a Cmax in “in vivo” (po, 100 mg, peak concentration (Cmax), range) of 1160 to 8390 ng/mL. In addition, the “intrinsic dissolution rate compared with ritonavir free base” value in series [2] is on record as “significantly faster dissolution rate than the ritonavir free base”.
Compound `CC(C)c1nc(CN(C)C(=O)N[C@H](C(=O)N[C@@H](Cc2ccccc2)C[C@H](O)[C@H](Cc2ccccc2)NC(=O)OCc2cncs2)C(C)C)cs1` [ritonavir free base, (2S,3S,5S)-5-(N-(N-((N-methyl-N-((2-isopropyl-4-thiazolyl)-methyl)amino)carbonyl)-L-valinyl)amino)-2-(N-((5-thiazolyl)-methoxy-carbonyl)-amino)-1,6-diphenyl-3-hydroxyhexane, reference compound] returned an AUC in the series “in vivo” (po, 100 mg, range) below 22 ng·h/mL.
For the compound “ritonavir bis-tosylate [reference compound]”, in the series “in vivo” (po, 100 mg), the “AUC, range” value is 70 to 6420 ng·h/mL and the “peak concentration (Cmax), range” value was 10 to 1620 ng/mL.
